Measured values from the NIST ThermoML archive (doi:10.1021/je050540h).

Experiment: xn = mol fraction of the nth substance listed
Details: 101 kPa, Liquid

C1CCCC1 [cyclopentane] + CCC(C)O
Details	mass density, 293.15 K [kg/m3]	mass density, 298.15 K [kg/m3]	mass density, 303.15 K [kg/m3]	speed of sound, 293.15 K [m/s]	speed of sound, 298.15 K [m/s]	speed of sound, 303.15 K [m/s]	viscosity, 293.15 K [mPa·s]	viscosity, 298.15 K [mPa·s]	viscosity, 303.15 K [mPa·s]
x1 = 0.0445	803.52	799.33	795.05	1225	1207	1188	3.152	2.621	2.194
x1 = 0.1036	799.5	795.2	790.81	1219	1200	1181	2.649	2.231	1.898
x1 = 0.1872	793.75	789.32	784.79	1212	1192	1172	2.121	1.811	1.56
x1 = 0.2856	787.01	782.42	777.74	1204	1183	1162	1.604	1.393	1.219
x1 = 0.3938	779.61	774.87	770.05	1197	1175	1153	1.194	1.054	0.94
x1 = 0.4873	773.26	768.43	763.52	1193	1170	1148	0.946	0.85	0.77
x1 = 0.6179	764.92	760.01	755.02	1191	1167	1144	0.692	0.636	0.588
x1 = 0.7034	759.79	754.84	749.82	1193	1169	1145	0.61	0.569	0.531
x1 = 0.8115	753.71	748.71	743.64	1200	1175	1151	0.517	0.485	0.455
x1 = 0.9113	748.61	743.57	738.46	1211	1186	1161	0.468	0.441	0.416
x1 = 0.9506	746.74	741.7	736.6	1218	1192	1167	0.451	0.426	0.403
x1 = 1	744.52	739.55	734.54	1232	1206	1180	0.438	0.416	0.394

CCCC(C)O (configuration not stated) [pentan-2-ol] + C1CCCC1
x2 = 0
Details	mass density [kg/m3]	speed of sound [m/s]	viscosity [mPa·s]
293.15 K	809.04	1250	4.001
298.15 K	805.01	1232	3.273
303.15 K	800.9	1214	2.774
